One series relates to rDNA. The series is described as follows: Quantitative PCR (QPCR) assay, rRNA inhibition (rDNA). The format is cell-based. Also on record: Selectivity: reference not given here. Conditions: for Selectivity: not defined in the patent; for IC50: rRNA inhibition from quantitative PCR assay. The text has this:
In a specific assay embodiment, provided herein is a method for identifying a molecule that modulates ribosomal RNA (rRNA) synthesis, which comprises: contacting cells with a test molecule of Formula (I), (II), (III), (IV), (V), (VI), (VI′), (VII), or (VIII), contacting a ribosomal nucleotide sequence with one or more primers that amplify a portion thereof and a labeled probe that hybridizes to the amplification product, and detecting the amount of the amplification product by hybridization of the labeled probe, whereby a test molecule that reduces or increases the amount of amplification product is identified as a molecule that modulates rRNA synthesis. The labeled probe in some embodiments is added after the primers are added and the rRNA is amplified, and in certain embodiments, the labeled probe and the primers are added at the same time. The portion of ribosomal nucleotide sequence amplified sometimes is at the 5′ end of rDNA.
Real-time quantitative PCR (QPCR) method may be used to detect the changes of the target c-myc and the endogenous reference GAPDH gene copies in the same tube. Generally, cells (15,000 cells/well) are seeded on 96 well flat bottom plates (Corning, N.Y.) and incubated under normal growth conditions for overnight. The next day, the culture medium is exchanged for that containing anticancer drugs at various concentrations and incubated for 4 hrs in a humidified atmosphere of 5% CO2 at 37° C. Total RNA (tRNA) is extracted using the RNeasy 96 Kit (QIAGEN, CA). The concentration of the tRNA is determined by the RiboGreen RNA Quantitation Reagent (Molecular Probes, OR).
A reverse-transcription (RT) reaction may be conducted using 50 ng of tRNA from each well in a 25 μl reaction containing 1× TaqMan RT buffer, 2.5 uM random hexamers, 5.5 mM MgCl2, 0.5 mM each deoxynucleoside triphosphate (dNTP), 30 U MultiScribe Reverse Transcriptase, and 10 U RNase inhibitor. RT reactions are incubated for 10 min at 25° C., reverse-transcribed for 30 min at 48° C., inactivated for 5 min at 95° C., and placed at 4° C. All RT reagents may be purchased from Applied Biosystems, CA.
Real-Time QPCR reaction may be performed in a 50 μl reaction containing the 5 μl of cDNA, 1× Universal PCR Master Mix, 1× c-myc Pre-Developed Primers and Probe set, and 0.8×GAPDH Pre-Developed Primers and Probe set. Because of the relative abundance of GAPDH gene in Hela, GAPDH primers and probe concentration may be adjusted to get accurate threshold cycles (CT) for both genes in the same tube. The threshold cycle (CT) indicates the fractional cycle number at which the amount of amplified target reaches a fixed threshold. By doing so, the GAPDH amplification is stopped before it can limit the common reactants available for amplification of the c-myc. The ΔRn value represents the normalized reporter signal minus the baseline signal. ΔRn increases during PCR as amplicon copy number increases until the reaction approaches a plateau.
The c-myc probe is labeled with 6FAM™ dye-MGB and the GAPDH probe is labeled with VIC™ dye-MTB. Preincubation is performed for 2 min at 50° C. to activate AmpErase UNG enzyme and then for 10 min at 95° C. to activate AmpliTaq DNA Polymerase. DNA is amplified for 40 cycles of 15 sec at 95° C. and 1 min at 60° C. Human c-myc and GAPDH cDNA are amplified, detected, and quantitated in real time using the ABI Prism 7000 Sequence Detection system (Applied Biosystems, CA), which is set to detect both 6-FAM and VIC reporter dyes simultaneously.
The data may be analyzed using the ABI PRISM Sequence Detection System and Microsoft Excel. Relative quantitation is done using the standard curve and comparative CT method at the same time, and both methods gave equivalent results. The cycle at which the amplification plot crosses the CT is known to accurately reflect relative mRNA values. (See, Heid, et al., Genome Res. (1996) 6:986-994; Gibson, et al., Genome Res. (1996) 6:995-1001). […]

Series [1] is described as follows: Cassette dosing oral pharmacokinetics in ICR mice. Type of series: in vivo. Conditions: ICR (IcrTac:ICR), mouse; cassette oral dose 25 mg/kg, female ICR mice, plasma, 0-8 h, none in table. How it is done:
A cassette dosing procedure was utilized to determine pharmaceutical properties of compounds disclosed herein. In this procedure, compounds are selected for each cassette (i.e., cocktail) on the basis that mass spectrometric signals for each compound will not interfere with one another upon mass spectrometric analysis (e.g., will not overlap). The concentration of each compound in the dosing cassette often is about 20 mg/mL to achieve an oral dose level of 25 mg/kg in ICR mice. Aspects of the cassette dosing procedure are described hereafter.
Prepare 0.5 mL of 20 mg/mL dosing solution (in PBS or formulation vehicle) of 12 test compounds. Dilute a dosing solution 20 fold by transferring 10 μL of the stock solution into 190 μL acetonitrile containing 0.1% formic acid to achieve a final concentration of 1 mg/mL. Dilute further a 1 mg/mL solution 1,000 fold by transferring 1 μL of the stock solution into 999 μL acetonitrile containing 0.1% formic acid to achieve a final concentration of 1 μg/mL. Use the 1 μg/mL solution for mass spectrometric method development based on direct infusion. Determine parent/daughter mass spectra of each compound using multiple reaction monitoring (MRM). Compare parent/daughter mass spectra of each compound to assure no cross-reaction interference during LC-MS/MS measurements. Based on MRM mass spectra determine the composition of all cassettes.
Mix 250 μL of four prepared dosing solutions and an oral PK internal standard (20 mg/mL each) according to cassette design to achieve a final concentration of 4 mg/mL. Vortex cassettes rigorously and ultra-sonicate to obtain a clear solution or homogeneous suspension. Use the cassette solutions to dose animals by oral route of administration at 25 mg/kg.
All in vivo experiments follow protocols approved by the Animal Use and Care Committee. Female ICR mice (IcrTac:ICR), 8-10 weeks of age are obtained from Taconic (Hudson, N.Y.). Mice are housed on a 12 h/12 h light/dark cycle with ad libitum access to water and food. After a minimum two week acclimation period, the mice are randomized into groups with a minimum group size of four. The animals used for pharmacokinetic studies have a body-weight range of 25-35 g. A 25 mg/kg (4 mg/ml) dose of a cassette described in Example 1 is orally administered to mice that have been fasted overnight.
After compound administration, serial blood samples are collected via retro-orbital puncture with a capillary tube at various time points (15, 30 minutes and 1, 2, 4, 6 and 8 hours). The samples are transferred to a heparinized 0.5 mL microcentrifuge tube and placed on ice. Plasma is separated by centrifugation and samples are stored at −80° C. until assay.
Dilute a cassette dosing solution (4 mg/mL) four fold by transferring 25 μL of the stock solution into 75 μL of 50% acetonitrile containing 0.1% formic acid to achieve the concentration of 1 mg/mL. Dilute this stock solution further by serial dilutions to make 0.01, 0.1, 1 and 5 μg/mL working standard solutions.
Prepare 500 mL of 0.5 μg/mL solution of bioanalytical internal standard using 100% acetonitrile with 0.1% formic acid. Store the quenching solution in a tightly sealed bottle at 4° C.
Transfer 15 μL of blank mouse plasma to a 96 well plate and precipitate plasma proteins by pipetting of 120 μL of quenching solution to all plasma aliquots. Cover the plate with a matching plate mat and mix well for 30-60 seconds using a vertical multi-tube shaker.
Add 15 μL of the working standard solution of corresponding cassette to quenched plasma and vortex the plate for an additional 30-60 seconds. Then, centrifuge the plate at 4,000 rpm for 10 minutes at 4° C. Without disturbing the plasma protein pellet, transfer 120 μL of the supernatant to a new 96 well plate and dry the sample under nitrogen using a TurboVap® plate evaporator (Caliper Life Sciences; Hopkinton, Mass.). Reconstitute dried residues with 120 μL 20% acetonitrile containing 0.1% formic acid. […]

The test system of series [2] is a variety of cell types that are representative of different cancers. The series is described as follows: Alamar Blue cell viability assay, variety of cell types representative of different cancers (Tables 12-14). The format is cell-based. The settings on record: read-out: IC50. On the procedure: A representative cell-proliferation assay protocol using Alamar Blue dye (stored at 4° C., use 20 ul per well) is described hereafter.
96-Well Plate Setup and Compound Treatment
a. Split and trypsinize cells.
b. Count cells using hemocytometer.
c. Plate 4,000-5,000 cells per well in 100 μl of medium and seed into a 96-well plate according to the following plate layout. Add cell culture medium only to wells B10 to B12. Wells B1 to B9 have cells but no compound added.
d. Add 100 μl of 2× drug dilution to each well in a concentration shown in the plate layout above. At the same time, add 100 μl of media into the control wells (wells B10 to B12). Total volume is 200 μl/well.
e. Incubate four (4) days at 37° C., 5% CO2 in a humidified incubator.
f. Add 20 μl Alamar Blue reagent to each well.
g. Incubate for four (4) hours at 37° C., 5% CO2 in a humidified incubator.
h. Record fluorescence at an excitation wavelength of 544 nm and emission wavelength of 590 nm using a microplate reader.
In the assays, cells are cultured with a test compound for approximately four days, the dye then is added to the cells and fluorescence of […] dye is detected after approximately four hours. Different types of cells can be utilized in the assays (e.g., HCT-116 human colorectal carcinoma cells, PC-3 human prostatic cancer cells and MiaPaca human pancreatic carcinoma cells). Anti-proliferative effects of representative compounds are provided hereafter.
Inhibitory activity on cell proliferation of Compounds A1, A2 and A3 was determined using an Alamar Blue cell viability assay (e.g., Example 39 herein) using a variety of cell types that are representative of different cancers Inhibition values (IC50) are presented in micromolar concentrations in the following table (Table 12).
Inhibitory activity on cell proliferation of representative compounds of the invention was determined using an Alamar Blue cell viability assay (e.g., Example 39 herein) using a variety of cell types that are representative of different cancers Inhibition values (IC50) are presented in micromolar concentrations in Table 13 and Table 14.
Background: The colour change of resazurin is a common sign of viable cells or microbes.

Series [3] concerns A375 cell xenograft tumors. The series can be described thus: A375 cell xenograft tumor inhibition. Type of series: in vivo, rodents. The settings on record: 75 mg/kg oral twice a day, seven days. How it is done: Compounds A1, A2 and A3 also were tested for tumor inhibition in xenograft rodents. Rodents having A375 cell xenograft tumors were administered 100 mg/kg, 75 mg/kg and 100 mg/kg doses of Compound A1, A2 and A3, respectively, by oral delivery twice a day. […] Also, rodents having MiaPaCa xenograft tumors were administered 100 mg/kg doses of Compound A1 and A3 by oral delivery twice per day.

Like-named read-outs stand apart in the source and are kept apart here.

As a reminder, the IC50 is the point on the concentration scale where inhibition reaches its midpoint. Usually AUC(0-t) stands for exposure summed from dosing to a finite time, without extrapolation to infinity.

In the series on rDNA, `CN1CCN(NC(=O)c2c(=O)c3cc(F)c(N4CCOCC4)nc3n3c2sc2ccccc23)CC1` had a Selectivity of 89 and an IC50 of 0.102 µM. In series [1], this compound yielded an AUC(0-t) of 4.36 µg·h/mL.

In the series with rDNA, `O=C(NCc1ccccn1)c1c(=O)c2cc(F)c(N3CCOCC3)nc2n2c1sc1ccccc12` yielded a Selectivity of 1 and a 50% inhibitory concentration (IC50) of 22.6 µM. The AUC(0-t) in series [1] is 90.6 µg·h/mL.

Consider `Cc1cnc(CNC(=O)c2c(=O)c3ccc(N4CCCN(C)CC4)nc3n3c2sc2ccccc23)cn1` [Compound A2], for which the IC50 was determined as 0.023 µM in series [2] (Homo sapiens, A-375, A375, Skin, Epithelial); 0.035 µM in series [2] (Homo sapiens, BXPC-3, BXPC3, Pancreas, Epithelial); 0.096 µM in series [2] (Homo sapiens, COLO 205, COLO-205, Colorectal, Epithelial); 0.032 µM in series [2] (Homo sapiens, HCT-116, HCT-116, Colorectal, Epithelial); 0.147 µM in series [2] (Homo sapiens, HL60/MX2, HL60/MX2, Hematopoetic, Lymphoma); 0.083 µM in series [2] (Homo sapiens, HL-60, HL60, Hematopoetic, Lymphoma). For the same compound, the IC50 in series [2] (Homo sapiens, HT-29, HT-29, Colorectal, Epithelial) was 0.042 µM; in series [2] (Homo sapiens, Jurkat, Hematopoetic, Lymphoma), 0.025 µM; in series [2] (Homo sapiens, K562, K562, Hematopoetic, Lymphoblast), 0.042 µM; in series [2] (Homo sapiens, LNCaP, Prostate, Fibroblastoid) it was 0.029 µM; in series [2] (Homo sapiens, MDA-MB-231, MDA-MB-231, Breast, Epithelial) it was 0.052 µM; in series [2] (Homo sapiens, MIA PaCa-2, Miapaca-2, Pancreas, Epithelial), 0.036 µM. For the same compound, the IC50 was determined as 0.09 µM in series [2] (Homo sapiens, NCI-H460, H460, Lung, Epithelial); 0.069 µM in series [2] (Homo sapiens, NCI-H1299, H1299, Lung, NSCL); 0.124 µM in series [2] (Homo sapiens, SAOS-2, Saos-2, Bone, Epithelial); 0.021 µM in series [2] (Homo sapiens, SK-MES-1, SK-MES-1, Lung, Sqaumous carcinoma); 0.064 µM in series [2] (Homo sapiens, SK-OV-3, SK-OV-3, Ovary, Epithelial); 0.089 µM in series [2] (Homo sapiens, U2OS, Bone, Epithelial). Besides, the IC50 in series [2] (Miapaca-R5, Pancreas, Epithelial) was found to be 0.034 µM; in series [2] (PC-3, Prostate, Epithelial), 0.089 µM. In addition, the “A375 tumor growth inhibition relative to untreated control group” value in series [3] is “significantly inhibited A375 tumor growth”.
